Data: patent publication US8114589B2, “Self-addressable self-assembling microelectronic integrated systems, component devices, mechanisms, methods, and procedures for molecular biological analysis and diagnostics” (Gamida For Life B.V., priority 1996, dated 2012)
One block for each molecule: values may come before it.

How the values were obtained:
[1] = Buffer conductivity and pH measurements; format: physicochemical; parameters: conductivity: unit not given here; conditions: for conductivity: RT; for pH: in water at room temperature
Method: Buffer Conductivity and pH Measurements—The conductivities of test buffer solutions utilized for transport and hybridization were measured at RT using an Accumet 1.0 cm^−1 glass conductivity cell connected to an Accumet Model 50 pH/Ion/Conductivity meter (Fisher Scientific). Buffer pH values were obtained using an Accu-pHast variable temperature combination electrode and the same model meter.

[2] = test system: btrRCA5 to ATA5 capture oligonucleotide; test: Accumulation and electronic hybridization in test buffers; conditions: for hybridization efficiency: [(specific hybridization)/(transported)] × 100; for transported: fluorescent signal at completion of electronic targeting; for transported / specific hybridization: value +/− SEM, 50 mM buffer; for support of sequence specific electronic hybridization: in words
Method: Microelectronic Chips, Permeation Layer and Instrumentation—These have been described previously with the following exception. The permeation layer employed herein has an underlayer of agarose beneath the top streptavidin-containing agarose layer (approximately one micron in total thickness). To make the underlayer, […] glyoxal agarose (2%) was spun on at 2000 rpms for 20 sec prior to the application of the streptavidin-agarose layer. In brief, the 5580 series APEX chip used for these experiments consists of a 5×5 array of […] circular microelectrodes with […] microelectrodes at each corner of the array. Chips were mounted on a micromanipulator stage and the microelectrodes activated by a power supply and appropriately controlled relay switches. Fluorescently labeled oligonucleotides on the chip were visualized using oblique illumination with two 594 nm HeNe lasers and the images were quantified using either NIH Image or IPLab Spectrum software packages.
Accumulation and Hybridization—Two biotinylated capture oligonucleotides, ATA5 and ATA4 were electronically transported and localized at adjacent microelectrodes. The solution was removed and the chip washed 3-4× in test buffer. Buffers employed in these studies are listed in Table 3 and were utilized at the listed pH values and concentrations presented.
The L-isomers of amino acids were used, unless otherwise noted. The chip was equilibrated in test buffer for 5-10 min. Then fresh buffer containing 10 nM BODIPY-Texas Red labeled RCA5 (btrRCA5), an oligonucleotide complementary to ATA5 but not ATA4 (RS paper) was applied.
The […] microelectrodes were employed as cathodes and one microelectrode within the array used as the corresponding anode. Accumulation was assessed by sourcing a 500 nA constant current to individual microelectrodes for 30 sec and monitoring the accumulation of fluorescence at the positively-biased (anode) site in the microelectrode array. Signal arising from non-fluorescent sources (ie. thermal noise, etc.) was subtracted. Experiments examining the effect of different currents upon signal accumulation were conducted in a similar fashion except that the applied current varied from 100 nA to 1 mA. […] For the comparison between conductivities of various buffers, the data is presented as fold increase over initial fluorescence to account for chip-to-chip variation as well as laser illumination variations in signal levels. For other experiments, the data is presented as attomol product versus time, after converting^2 the observed fluorescence intensity to moles of labeled oligonucleotide.
Following accumulation at one microelectrode location, the buffer was removed and fresh buffer containing btrRCA5 applied. An adjacent microelectrode was then sourced in a similar fashion. Upon completion, the buffer was removed and the chip washed 5-7× with test buffer without btrRCA5. The pair of previously targeted microelectrodes were then illuminated and the fluorescence present at each site quantified. Control experiments utilized a bodipy-Texas Red labeled oligonucleotide complementary to ATA4 to verify the integrity and concentration of the ATA4 capture oligonucleotide. Percent hybridization efficiency was calculated as follows: (complementary oligonucleotide signal−noncomplementary signal)/(signal present immediately prior to the end of the applied current)×100.

[3] = cited from earlier work; for pl: Table 3
[4] = test system: btr-RCA5 fluorescent DNA probe; test: Fluorescent DNA checkerboard addressing; conditions: bias reversed every 6 seconds, 80 micron microlocations
[5] = Buffer capacity, pH and conductivity of buffers used on the APEX chip; conditions: for PH: NaPO4: 20 mM adjusted to pH 7.4
DNA = DNA transport (accumulation) on the APEX chip; conditions: in words, same field conditions
[6] = Conductivity measurements of transport buffers; format: physicochemical; conditions: for Average/Std. Deviation / Measurement 1 / Measurement 2 / Measurement 3: conductivity
[7] = not told
[8] = test system: Reporter DNA to DNA1 or PNA1 capture; test: Hybridization of phosphodiester-linked oligonucleotides versus PNA analogues; conditions: 50 mM buffer
[9] = test system: target DNA to the specific capture DNA; test: DNA hybridization sensitivity on the APEX chip; conditions: normal DNA

Molecule: water [Milli-Q water]
- checkerboard addressing and concentration of fluorescent DNA probe [4]: Rapid (6 second) checkerboard addressing and concentration of the btr-RCA5 fluorescent DNA probe was demonstrated

Molecule: O=P(O)(O)O [NaPO4, Sodium Phosphate]
- conductivity [5]: 1,400.0 μS
- PH [5]: 7.4
- transport (DNA): fair transport
- conductance [6]: ~2.9 mS/cm
- Average/Std. Deviation ([6]; listed as 1 mM NaPO4): 128.7 +/− 7.0 μS/cm
- Measurement 1 ([6]; listed as 1 mM NaPO4): 122 μS/cm
- Measurement 2 ([6]; listed as 1 mM NaPO4): 128 μS/cm
- Measurement 3 ([6]; listed as 1 mM NaPO4): 136 μS/cm
- Average/Std. Deviation ([6]; listed as 10 mM NaPO4): 1.44 +/− 0.04 mS/cm
- Measurement 1 ([6]; listed as 10 mM NaPO4): 1.40 mS/cm
- Measurement 2 ([6]; listed as 10 mM NaPO4): 1.44 mS/cm
- Measurement 3 ([6]; listed as 10 mM NaPO4): 1.48 mS/cm
- Average/Std. Deviation ([6]; listed as 20 mM NaPO4): 2.90 +/− 0.11 mS/cm
- Measurement 1 ([6]; listed as 20 mM NaPO4): 2.90 mS/cm
- Measurement 2 ([6]; listed as 20 mM NaPO4): 2.79 mS/cm
- Measurement 3 ([6]; listed as 20 mM NaPO4): 3.00 mS/cm

Molecule: N[C@@H](CCC(=O)O)C(=O)O [glutamic acid]
- pI [3]: 3.22

Molecule: N[C@H](Cc1c[nH]cn1)C(=O)O [D-histidine]
- conductivity ([1]; 50 mM): 57.1 +/− 0.3
- pH ([1]; 50 mM): 7.70
- hybridization efficiency [2]: 24.3
- transported [2]: 490 +/− 50
- specific hybridization [2]: 119 +/− 11.8 attomol
- pl [3]: 7.47

Molecule: O=C([O-])CCC(=O)[O-].[Na+].[Na+] [5 mM NaSuccinate, sodium succinate]
- checkerboard addressing and concentration of fluorescent DNA probe [4]: Rapid (6 second) checkerboard addressing and concentration of the btr-RCA5 fluorescent DNA probe was demonstrated

Molecule: N[C@@H](CS)C(=O)O [Cysteine]
- conductivity ([1]; 50 mM): 9.0 +/− 0.9
- pH ([1]; 50 mM): 5.08
- conductivity ([1]; 250 mM): 21.8 +/− 4.4
- conductivity [5]: 25.0 μS
- PH [5]: 5.2
- Hybridization Sensitivity of DNA [9]: 7.5×10^10 targets
- transport (DNA): excellent transport
- support of sequence specific electronic hybridization [2]: difficult to evaluate because of poor signal accumulation
- pK1 ([3]; Table 2): pK1 - 1.7
- pK2 ([3]; Table 2): pK2 - 8.3
- pK3 ([3]; Table 2): pK3 - 10.8
- pl [3]: 5.02
- pI [3]: 5.02
- conductivity [6]: ~23 μS/cm
- Average/Std. Deviation [6]: 22.7 +/− 5.09 μS/cm
- Measurement 1 [6]: 27.4 μS/cm
- Measurement 2 [6]: 17.3 μS/cm
- Measurement 3 [6]: 23.5 μS/cm

Molecule: c1ccncc1 [pyridine]
- conductivity ([1]; 50 mM): 5.0 +/− 0.8
- pH ([1]; 50 mM): 8.17
- transported [2]: 764 +/− 66
- specific hybridization [2]: 12.8 +/− 4.2 attomol

Molecule: Cc1cc(C)nc(C)c1 [collidine]
- hybridization efficiency [2]: 3.7
- transported [2]: 382 +/− 63
- specific hybridization [2]: 14.1 +/− 4.6 attomol

Molecule: N[C@@H](Cc1c[nH]cn1)C(=O)O [L-histidine]
- conductivity ([1]; 50 mM): 60.1 +/− 0.1
- pH ([1]; 50 mM): 7.65
- non-specific signal as compared to the amount of material transported [2]: 2.2%
- hybridization efficiency [2]: 14.6
- transported [2]: 533 +/− 65
- specific hybridization [2]: 78.0 +/− 9.1 attomol
- pl [3]: 7.47

Molecule: O=C([O-])CC(O)(CC(=O)[O-])C(=O)[O-].[Na+].[Na+].[Na+] [3.3 mM NaCitrate, sodium citrate]
- checkerboard addressing and concentration of fluorescent DNA probe [4]: Rapid (6 second) checkerboard addressing and concentration of the btr-RCA5 fluorescent DNA probe was demonstrated
- Average/Std. Deviation [6]: 986 +/− 38.1 μS/cm
- Measurement 1 [6]: 964 μS/cm
- Measurement 2 [6]: 1.03 mS/cm
- Measurement 3 [6]: 964 μS/cm

Second part, led by results:

- conductivity ([1]; 50 mM): 39.4 +/− 0.4
- pH ([1]; 50 mM): 7.44
Molecule: Cn1cnc(C[C@H](N)C(=O)O)c1 [3(τ)-methylhistidine]
- hybridization efficiency [2]: 20.8
- transported [2]: 259 +/− 48
- specific hybridization [2]: 54.0 +/− 14.8 attomol
- pl [3]: 7.52

- conductivity ([1]; 50 mM): 2.5 +/− 0.2
- pH ([1]; 50 mM): 6.01
- conductivity ([1]; 250 mM): 7.8 +/− 0.5
- pH ([1]; 250 mM): 6.11
Molecule: NCC(=O)O [glycine]
- support of sequence specific electronic hybridization [2]: neither GABA, b-alanine, nor glycine was capable of supporting sequence specific hybridization
- pl [3]: 5.97

- conductivity [5]: 4.5 μS
- PH [5]: 4.6
Molecule: NCCS(=O)(=O)O [Taurine]
- transport (DNA): excellent transport

- conductivity ([1]; 50 mM): 17.6 +/− 1.6
- pH ([1]; 50 mM): 9.08
- pH above the surface of the permeation layer [7]: > 5
Molecule: c1c[nH]cn1 [imidazole]
- hybridization efficiency [2]: 4.0
- transported [2]: 528 +/− 63
- specific hybridization [2]: 21.2 +/− 6.6 attomol

- Average/Std. Deviation [6]: 147.6 +/− 9.07 μS/cm
- Measurement 1 [6]: 141 μS/cm
- Measurement 2 [6]: 144 μS/cm
- Measurement 3 [6]: 158 μS/cm
- Average/Std. Deviation ([6]; listed as 25 mM HEPES): 9.7 +/− 0.71 μS/cm
- Measurement 1 ([6]; listed as 25 mM HEPES): 9.16 μS/cm
- Measurement 2 ([6]; listed as 25 mM HEPES): 9.44 μS/cm
- Measurement 3 ([6]; listed as 25 mM HEPES): 10.5 μS/cm
Molecule: O=S(=O)(O)CCN1CCN(CCO)CC1 [250 mM HEPES, HEPES]
- checkerboard addressing and concentration of fluorescent DNA probe [4]: Rapid (6 second) checkerboard addressing and concentration of the btr-RCA5 fluorescent DNA probe was demonstrated

- conductivity ([1]; 50 mM): 5.6 +/− 0.6
- pH ([1]; 50 mM): 6.76
Molecule: NCCCC(=O)O [GABA, g-amino-butyric acid]
- DNA:DNA hybridization ([8]; 200 nA): no hybridization was observed
- PNA:DNA hybridization ([8]; 200 nA): Hybridization in GABA was seen
- hybridization with either PNA:DNA or DNA:DNA duplexes ([8]; 500 nA): lack of hybridization
- support of sequence specific electronic hybridization [2]: neither GABA, b-alanine, nor glycine was capable of supporting sequence specific hybridization
- pl [3]: 7.30

- conductivity ([1]; 50 mM): 74.5 +/− 5.5
- pH ([1]; 50 mM): 8.07
Molecule: NCCC(=O)N[C@@H](Cc1cnc[nH]1)C(=O)O [carnosine]
- hybridization efficiency [2]: 26.1
- transported [2]: 129 +/− 45
- specific hybridization [2]: 33.7 +/− 12.1 attomol
- pl [3]: 8.17

- conductivity ([1]; 50 mM): 3.6 +/− 0.6
- pH ([1]; 50 mM): 6.71
- conductivity [5]: 10.0 μS
- PH [5]: 7.3
Molecule: NCCC(=O)O [β-Alanine]
- transport (DNA): excellent transport
- support of sequence specific electronic hybridization [2]: neither GABA, b-alanine, nor glycine was capable of supporting sequence specific hybridization
- pK1 ([3]; Table 2): pK1 - 3.6
- pK2 ([3]; Table 2): pK2 - 10.2
- pl [3]: 6.90

- conductivity ([1]; 50 mM): 117 +/− 2.8
- pH ([1]; 50 mM): 7.59
Molecule: Cn1cncc1C[C@H](N)C(=O)O [1(π)-methylhistidine]
- hybridization efficiency [2]: 21.3
- transported [2]: 141 +/− 20
- specific hybridization [2]: 30.0 +/− 5.0 attomol
- pl [3]: 7.54
